target: T1, recombinant guanylate cyclase reporter cell line (Rattus norvegicus, UniProt P19686+P20595); assay: Action on recombinant guanylate cyclase reporter cell line; format: cell-based; conditions: in some cases mean values from individual determinations
T1 construct: expressed in transfected cells; host or cells: recombinant reporter cell line
T1 sequence (P19686 1-690): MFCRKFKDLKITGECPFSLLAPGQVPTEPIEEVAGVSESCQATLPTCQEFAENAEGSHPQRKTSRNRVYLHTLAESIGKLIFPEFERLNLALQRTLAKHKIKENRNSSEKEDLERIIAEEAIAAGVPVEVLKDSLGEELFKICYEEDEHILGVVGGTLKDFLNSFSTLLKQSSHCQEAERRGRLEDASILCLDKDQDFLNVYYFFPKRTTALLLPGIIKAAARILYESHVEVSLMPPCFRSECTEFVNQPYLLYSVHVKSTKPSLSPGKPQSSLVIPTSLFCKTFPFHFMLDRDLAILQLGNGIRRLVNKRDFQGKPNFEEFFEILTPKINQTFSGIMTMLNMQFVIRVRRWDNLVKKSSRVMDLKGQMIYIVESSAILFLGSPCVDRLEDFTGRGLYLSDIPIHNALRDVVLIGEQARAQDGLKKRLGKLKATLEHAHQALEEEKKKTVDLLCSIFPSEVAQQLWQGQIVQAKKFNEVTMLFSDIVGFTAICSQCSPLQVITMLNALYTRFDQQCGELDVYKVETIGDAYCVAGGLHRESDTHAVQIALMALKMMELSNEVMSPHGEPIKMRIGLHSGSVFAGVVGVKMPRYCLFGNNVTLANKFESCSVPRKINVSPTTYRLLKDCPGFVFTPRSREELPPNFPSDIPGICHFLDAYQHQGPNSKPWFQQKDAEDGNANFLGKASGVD
T1 sequence (P20595 1-619): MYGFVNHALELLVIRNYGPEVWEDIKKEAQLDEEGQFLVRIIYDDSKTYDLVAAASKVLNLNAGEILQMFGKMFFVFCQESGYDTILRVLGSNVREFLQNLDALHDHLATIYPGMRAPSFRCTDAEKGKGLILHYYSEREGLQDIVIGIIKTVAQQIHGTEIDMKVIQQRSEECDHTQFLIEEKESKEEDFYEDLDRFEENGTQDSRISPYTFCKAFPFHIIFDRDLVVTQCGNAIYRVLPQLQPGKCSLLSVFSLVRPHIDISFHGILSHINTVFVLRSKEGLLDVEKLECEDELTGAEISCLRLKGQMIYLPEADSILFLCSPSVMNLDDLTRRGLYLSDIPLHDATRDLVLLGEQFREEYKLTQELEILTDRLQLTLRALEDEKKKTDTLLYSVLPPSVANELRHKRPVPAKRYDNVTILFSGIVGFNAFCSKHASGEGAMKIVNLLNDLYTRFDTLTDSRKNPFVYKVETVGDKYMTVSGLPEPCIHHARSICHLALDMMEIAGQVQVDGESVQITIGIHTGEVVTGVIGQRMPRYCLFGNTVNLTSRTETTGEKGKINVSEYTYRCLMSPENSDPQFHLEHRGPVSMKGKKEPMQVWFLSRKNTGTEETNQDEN
Method in brief: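 Cellular activity was measured in a reporter cell line expressing recombinant guanylate cyclase. Values are given as MEC, the minimal effective concentration, and some are means of individual determinations.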

Compound	MEC (minimal effective concentration) [µM]
CCC(C)(N)CNC(=O)c1c(C)nc2c(OCc3c(F)cccc3F)cc(C)cn12.Cl (single isomer, unassigned; enantiomer a) [Example 357, ent-N-(2-amino-2-methylbutyl)-8-[(2,6-difluorobenzyl)oxy]-2,6-dimethylimidazo[1,2-a]pyridine-3-carboxamide hydrochloride (Enantiomer A)]	0.03
COCC(N)CNC(=O)c1c(C)nc2c(OCc3c(F)cccc3F)cccn12 (single isomer, unassigned; enantiomer a) [Example 247, ent-N-(2-Amino-3-methoxypropyl)-8-[(2,6-difluorobenzyl)oxy]-2-methylimidazo[1,2-a]pyridine-3-carboxamide (Enantiomer A)]	3.00
CCCC(C)(N)CNC(=O)c1c(C)nc2c(OCc3c(F)cccc3F)cc(C(F)F)cn12 (single isomer, unassigned; enantiomer b) [Example 290, ent-N-(2-amino-2-methylpentyl)-8-[(2,6-difluorobenzyl)oxy]-6-(difluoromethyl)-2-methyl-imidazo[1,2-a]pyridine-3-carboxamide (Enantiomer B)]	0.3
Cc1nc2c(OCc3c(F)cccc3F)cccn2c1C(=O)NCC(C)(N)CC(C)C (single isomer, unassigned) [Example 204, ent-N-(2-Amino-2,4-dimethylpentyl)-8-[(2,6-difluorobenzyl)oxy]-2-methylimidazo[1,2-a]pyridine-3-carboxamide]	1.00
Cc1nc2c(OCc3c(F)cccc3F)cccn2c1C(=O)NCC(N)CC(F)(F)F (single isomer, unassigned) [Example 126, ent-N-(2-Amino-4,4,4-trifluorobutyl)-8-[(2,6-difluorobenzyl)oxy]-2-methylimidazo[1,2-a]pyridine-3-carboxamide]	0.30
CCOC(=O)c1cccc(C(CN)NC(=O)c2c(C)nc3c(OCc4c(F)cccc4F)cc(C)cn23)n1 (stereo not drawn) [Example 397]	1.00
Cc1cc(OCc2c(F)cccc2F)c2nc(C)c(C(=O)N[C@@H]3CC[C@](C)(N)C3(C)C)n2c1 [Example 324, N-[(1R,3S)-3-amino-2,2,3-trimethylcyclopentyl]-8-[(2,6-difluorobenzyl)oxy]-2,6-dimethylimidazo[1,2-a]pyridine-3-carboxamide]	1.00
Cc1nc2c(OCc3c(F)cccc3F)cccn2c1C(=O)NCCN1CCOCC1 [Example 89, 8-[(2,6-difluorobenzyl)oxy]-2-methyl-N-[2-(morpholin-4-yl)ethyl]imidazo[1,2-a]pyridine-3-carboxamide]	0.65
Cc1nc2c(OCc3c(F)cccc3F)cc(Cl)cn2c1C(=O)NCC(N)CC(F)(F)F (racemic) [Example 147, rac-N-(2-amino-4,4,4-trifluorobutyl)-6-chloro-8-[(2,6-difluorobenzyl)oxy]-2-methylimidazo[1,2-a]pyridine-3-carboxamide]	0.30
COCC(C)(N)CNC(=O)c1c(C)nc2c(OCc3c(F)cccc3F)cccn12 (racemic) [Example 213, rac-N-(2-Amino-3-methoxy-2-methylpropyl)-8-[(2,6-difluorobenzyl)oxy]-2-methylimidazo[1,2-a]-pyridine-3-carboxamide]	1.00
CCC(N)(CC)CNC(=O)c1c(C)nc2c(OCc3c(F)cccc3F)cccn12 [Example 253, N-(2-Amino-2-ethylbutyl)-8-[(2,6-difluorobenzyl)oxy]-2-methylimidazo[1,2-a]pyridine-3-carboxamide]	0.10
CC[C@](C)(N)CNC(=O)c1c(C)nc2c(OCc3c(F)cccc3F)cc(C)cn12 (single isomer, unassigned) [Example 200]	0.04
Cc1nc2c(OCc3c(F)cccc3F)cccn2c1C(=O)NC1CCCN(C)C1 (racemic) [Example 84, rac-8-[(2,6-difluorobenzyl)oxy]-2-methyl-N-(1-methylpiperidin-3-yl)imidazo[1,2-a]-pyridine-3-carboxamide]	1.00
Cc1nc2c(OCc3c(F)cccc3F)cccn2c1C(=O)NCC(C)(N)COCc1ccccc1 (racemic) [Example 263, rac-N-[2-amino-3-(benzyloxy)-2-methylpropyl]-8-[(2,6-difluorobenzyl)oxy]-2-methylimidazo[1,2-a]pyridine-3-carboxamide]	1.00
Cc1cc(OCc2c(F)cccc2F)c2nc(C)c(C(=O)NC3CCC3N)n2c1 (single isomer, unassigned; enantiomer a) [Example 328, ent-N-(2-aminocyclobutyl)-8-[(2,6-difluorobenzyl)oxy]-2,6-dimethylimidazo[1,2-a]pyridine-3-carboxamide (Enantiomer A)]	3.00
Cc1nc2c(OCc3c(F)cccc3F)cc(CF)cn2c1C(=O)NCC(C)(N)CF (stereo not drawn) [Example 405]	0.30
Cc1nc2c(OCc3c(F)cccc3F)cccn2c1C(=O)NC1CCNc2ccc(F)cc21 (single isomer, unassigned; ent-8) [Example 106, ent-8-[(2,6-difluorobenzyl)oxy]-N-(6-fluoro-1,2,3,4-tetrahydroquinolin-4-yl)-2-methylimidazo[1,2-a]pyridine-3-carboxamide]	0.03
Cc1cc(OCc2c(F)cccc2F)c2nc(C)c(C(=O)NC[C@H]3CCCN3)n2c1 [Example 116, 8-[(2,6-difluorobenzyl)oxy]-2,6-dimethyl-N-[(2R)-pyrrolidin-2-ylmethyl]imidazo[1,2-a]-pyridine-3-carboxamide]	3.00
COC(=O)c1cccc(C(N)CNC(=O)c2c(C)nc3c(OCc4c(F)cccc4F)cc(C)cn23)c1 (racemic) [Example 399, rac-Methyl 3-{1-amino-2-[({8-[(2,6-difluorobenzyl)oxy]-2,6-dimethylimidazo[1,2-a]pyridin-3-yl}carbonyl)amino]ethyl}benzoate]	1.00
Cc1cc(OCc2c(F)cccc2F)c2nc(C)c(C(=O)NCC(C)(N)CO)n2c1 (single isomer, unassigned; enantiomer a) [Example 268, ent-N-(2-Amino-3-hydroxy-2-methylpropyl)-8-[(2,6-difluorobenzyl)oxy]-2,6-dimethylimidazo-[1,2-a]pyridine-3-carboxamide (Enantiomer A)]	0.55
Cc1cc(OCc2c(F)cccc2F)c2nc(C)c(C(=O)NCC(N)c3cccc(C(F)(F)F)c3)n2c1 (racemic) [Example 376, rac-N-{2-amino-2-[3-(trifluoromethyl)phenyl]ethyl}-8-[(2,6-difluorobenzyl)oxy]-2,6-dimethylimidazo[1,2-a]pyridine-3-carboxamide]	3.00
Cc1cc(OCc2c(F)cccc2F)c2nc(C)c(C(=O)NC3CCNC(C(F)(F)F)C3)n2c1 (racemic) [Example 302, rac-8-[(2,6-difluorobenzyl)oxy]-2,6-dimethyl-N-[2-(trifluoromethyl)piperidin-4-yl]imidazo[1,2-a]pyridine-3-carboxamide]	0.10
Cc1cc(OCc2c(F)cccc2F)c2nc(C)c(C(=O)NCC3CN(Cc4ccccc4)CCO3)n2c1 (racemic) [Example 344, rac-N-[(4-benzylmorpholin-2-yl)methyl]-8-[(2,6-difluorobenzyl)oxy]-2,6-dimethylimidazo[1,2-a]pyridine-3-carboxamide]	1.00
Cc1nc2c(OCC3CCCCC3)cccn2c1C(=O)NC(CN)c1ccc(Cl)cc1 (racemic) [Example 43, rac-N-[2-Amino-1-(4-chlorophenyl)ethyl]-8-(cyclohexylmethoxy)-2-methylimidazo[1,2-a]-pyridine-3-carboxamide]	1.00

Reference: patent US20150274719A1, “AMINO-SUBSTITUTED IMIDAZO[1,2-A]PYRIDINECARBOXAMIDES AND THEIR USE” (BAYER PHARMA AKTIENGESELLSCHAFT, priority 2012, published 2015)
